# Test results from patent US7288273B1, “Gallotannins and ellagitannins as regulators of cytokine release” (The Penn State Research Foundation, priority 2000, dated 2007).
# Values joined by “and” are separate entries in the source; they are usually repeats but may differ in a detail not shown here. Identical values can stand only once.
# Tests used:
# [1] = system: LPS induced TNF-α secretion from h-PBMC's; assay: Inhibition of LPS induced TNF-α secretion from h-PBMC's; assay type: cell-based, human; details: h-PBMC's
# Procedure: In the second study, the ability of compounds 17c-20c to inhibit LPS induced TNF-α production in h-PBMC's was investigated using four assays. The first experiment was a kinetics run in which the h-PBMC's were initially incubated with a fixed concentration of LPS (5 μg/mL) for 45 minutes. This incubation period was followed by addition of a fixed concentration (10 μg/mL) of compounds 17c-20c. The cells were harvested at varying intervals of time. […] The optimal time was determined by comparing the amount of TNF-α secreted by LPS alone to the amount of TNF-α secreted by LPS and substrate at each time point.
# The second assay determined the minimum amount of substrate required for inhibition. LPS (10 μg/mL) was incubated with h-PBMC's for 45 minutes followed by addition of 17c-20c at varying concentrations. The cell culture supernatant was harvested after 8 hours. The inherent variability in using cells from different subjects, or in the day of assay, made it difficult to compare overall effectiveness of inhibitors. Therefore, to more easily identify the concentration at which maximum inhibition occurs for a given compound, the TNF-α secretion was normalized by calculating a percent of maximum secretion value (based on LPS alone) (FIG. 13). […] The optimal concentration for inhibition varied between substrates, but the general dose response trend was the same. Overall, the maximum inhibition was 45% for 18c and 20c, and 25% for 19c.
# The third assay investigated the ability of 17c, 18c, and 20c to inhibit LPS induced TNF-α secretion using a smaller dosage of LPS (5 μg/mL) (FIG. 14). Again, the response was dose dependent. The maximum inhibition was 45% for 17c and 20c, and 35% for 18c.
# In the fourth assay the varying concentrations of substrates 17c-20c and LPS were added at the same time to determine the effect of addition sequence on the inhibition of TNF-α secretion (FIG. 15). The addition time seemed to make a difference in the overall dose response trend. However, maximum inhibition was the same as when the compounds were added 45 minutes after LPS addition (about 40% for each compound).
# Finally, in the last study, analogs 19c and 20c were again tested for inhibition LPS induced TNF-α secretion (FIG. 17). In this assay a smaller dose of LPS was used to determine if inhibition was greater when much lower doses of LPS were present. The substrates were added 45 minutes after LPS addition and the cells were harvested after 8 hours. It doesn't appear as though the substrates are better inhibitors when smaller amounts of LPS are used, again perhaps reflecting receptor saturation with LPS at this dosage.
# sarcoma-180 tumors = details: cited from earlier work; for life span increase / regressors: Miyamoto's mouse studies, sarcoma-180; for antitumor effect, in words: mice infected with sarcoma-180 tumors
# [2] = system: TNF-α secretion from h-PBMC's; assay: TNF-α release from h-PBMC's, ELISA; assay type: cell-based, human
# Procedure: (§1) Authentic samples of agrimoniin and coriariin A were supplied by Professor Yoshida (Okayama University, Japan). Dimeric gallotannin (analog of coriariin A) and β-D-PGG were synthesized as described. LPS (E. coli 055:B5 phenol extract, MW range 50-100 KD). Ficoll-Histopaque (ρ=1.077 g/mL), Fetal Bovine Serum, sterile, hybridoma tested (FCS), gentamicin 10 mg/mL. L-glutamine, 200 mM. Dextran B-512 Leuconostoc Av M.W. 580000, and Trypan Blue stain were purchased from Sigma. Hanks Buffer Saline Solution 1×, with phenol red, mediatech (HBSS) and RPMI 1640 1×, mediatech were purchased from Fisher Scientific, Human IL-1β and TNF-α Enzyme Linked ImmunoSorbent Assay (ELISA) kits were purchased from R and D Systems, Minneapolis, Minn. Fresh heparinized blood was obtained from health human subjects (ages 20-34).
# (§2) Dose-Response Data: General Procedure. H-PBMC's were isolated by reported procedures (10. 18). The cells counted and the viability was determined by Trypan Blue exclusion (typically, viability exceeded 95%). The concentration of the cells in the 0.5 mL wells was adjusted to 1×10^6 cells/well by diluting with the required amount of RPMI.
# (§3) The appropriate amount of a tannin (or LPS) stock solution in HBSS was added to each well to furnish the concentration values reported in the Figures. […] The culture plates were incubated in a 5% CO2, 37° C. humidified incubator for the indicated time. At the end of the time interval, 450 μL of the culture supernatant from each well was harvested, after centrifugation at 400 g, 25° C., 10 min. with brake, and stored at −78° C. pending ELISA analysis for the cytokine(s). The ELISA assays were conducted per the manufacturer's instructions using standard calibration curves to calculate cytokine concentration from observed absorbance readings. The cytokine values reported are averages of three runs±SE.
# (§4) The dimeric antitumor ellagitannins coriariin A and agrimoniin, the monomeric gallotannin β-D-pentagalloylglucose (β-D-PGG) and the dimeric gallotannin of this invention were all examined in this study. The dimeric gallotannin is an analog of coriariin A and is identical to the parent ellagitannin except that the galloyl rings at O(4) and O(6) are not joined in a hexahydroxydiphenoyl (HHDP) linkage. h-PBMC's were incubated with the compound under investigation for the indicated length of time and the amounts of both IL-1β and, independently, TNF-α, present in the culture supernatants was determined using commercially available ELISA kits. In each case, LPS was used as a positive control while untreated cells were reserved as negative controls.
# In the first study, the induction of TNF-α secretion from h-PBMC's in the presence of each compound 17c-21c was measured. The h-PBMC's were incubated with each compound for 24 hours. The TNF-α levels in the cell culture supernatant were assayed by Enzyme Linked ImmunoSorbant Assay (ELISA). The data point for each assay represent the mean of triplicate measurements. […] (See FIG. 11).
# [3] = system: LPS induced secretion of TNF-α; assay: In vivo study in rats given LPS with or without β-PGG
# Procedure: The ability of β-PGG to function in vivo was investigated in collaboration with Dr. Charles Lang of the Hershey Medical School. In this experiment, two groups of rats were used. One group was intravenously administered 1 mg/kg of LPS as well as 25 mg of β-PGG. The second group was given only 1 mg/kg of LPS. […] These preliminary in vivo results were encouraging, however several problems with the use of β-PGG as an inhibitor are evident. A large amount of β-PGG was required to elicit inhibition because β-PGG is a small monomeric gallotannin that is able to interact with other blood proteins such as rat serum albumin.
# [4] = system: IL-1β secretion from h-PBMC's; assay: IL-1β release from h-PBMC's, ELISA; assay type: cell-based, human; details: h-PBMC's
# Procedure: as §1, §2, §3, §4
# In the third study, compounds 17c-20c were examined for their ability to induce secretion of IL-1β from h-PBMC's (FIG. 16). Recall from the introduction that the cytokine IL-1β is also released in an LPS-stimulated septic shock response. The compounds that cause very little secretion of IL-1β or none at all will be the optimal compounds for potential septic shock therapeutics because they will be less likely themselves to induce a septic shock response.
# [5] = system: IL-1β secretion from h-PBMC's; details: cited from earlier work
# L929 murine fibroblast = assay: qualitative L929 murine fibroblast lysis assay of h-PBMC supernatant; assay type: cell-based
# Text: This indirect measure of TNF-α levels in the h-PBMC supernatant provided the first evidence which implicated this cytokine in tannin-mediated antitumor activity and encouraged a more quantitative assessment of the TNF-α liberating capacity of agrimoniin and the related species as described below.
# [6] = in vivo; cited from earlier work
# [7] = fixed concentrations, time course
# [8] = rats, 1 mg/kg LPS intravenously and 25 mg β-PGG
compound,measurement,setting,value
"O=C(OCC1OC(OC(=O)c2cc(O)c(O)c(O)c2)[C@H](OC(=O)c2cc(O)c(O)c(O)c2)[C@@H](OC(=O)c2cc(O)c(O)c(O)c2)C1OC(=O)c1cc(O)c(O)c(O)c1)c1cc(O)c(O)c(O)c1 (stereo partly drawn) [Compound 1, β-D-pentagalloylglucose]","inhibition of LPS induced TNF-α secretion from h-PBMC's, in words",[1],can inhibit LPS induced secretion of TNF-α
same,life span increase,sarcoma-180 tumors,82%
same,regressors,sarcoma-180 tumors,0/6
same,"antitumor effect, in words",sarcoma-180 tumors,much less effective antitumor agents
same,"TNF-α secretion from h-PBMC's, in words",[2],much less TNF-α discharge
same,TNF-α detected at 4 h reading,"[2]; fixed concentrations, 4 h",only trace amounts
same,time of maximum TNF-α discharge,[2]; [7],ca. 24 h
same,TNF-α secreted from 90 min,"[3]; rats given LPS 1 mg/kg intravenously + 25 mg β-PGG (LPS + 1), 90 min, individual rats, ± SD",6919.4 ± 823.2 pg/mL and 4509.4 ± 583.3 pg/mL and 8060.7 ± 918.2 pg/mL and 1928.4 ± 331.5 pg/mL
same,TNF-α secreted after 180 min,"[3]; rats given LPS 1 mg/kg intravenously + 25 mg β-PGG (LPS + 1), 180 min, individual rats, ± SD",733.9 ± 28.3 pg/mL and 291.7 ± 68.0 pg/mL and 1347.5 ± 150.4 pg/mL and 129.9 ± 105.5 pg/mL
same,"TNF-α secretion compared to LPS-only rats, in words",[3]; [8],suppressed levels of TNF-α secretion
same,septic shock response (blood pressure),[3]; [8],low blood pressure was still observed
same,IL-1β detected at 4 h reading,"[4]; fixed concentrations, 4 h",only trace amounts
same,time of maximum IL-1β discharge,[4]; [7],ca. 24 h
same,"IL-1β secretion from h-PBMC's, in words",[4]; listed as β-D-PGG,effective at stimulating the production of IL-1β
same,"IL-1β secretion from h-PBMC's, in words",[4]; listed as β-PGG,high levels of IL-1β
O=C(O[C@H]1O[C@@H]2COC(=O)c3cc(O)c(O)c(O)c3-c3c(cc(O)c(O)c3O)C(=O)O[C@H]2[C@@H]2OC(=O)c3cc(O)c(O)c(O)c3-c3c(cc(O)c(O)c3O)C(=O)O[C@@H]12)c1cc(O)c(O)c(Oc2c(C(=O)O[C@H]3O[C@@H]4COC(=O)c5cc(O)c(O)c(O)c5-c5c(cc(O)c(O)c5O)C(=O)O[C@H]4[C@@H]4OC(=O)c5cc(O)c(O)c(O)c5-c5c(cc(O)c(O)c5O)C(=O)O[C@@H]34)cc(O)c(O)c2O)c1 [agrimoniin],IL-1β secreted (reported earlier),[5]; 20 μM agrimoniin,ca. 1.2 ng/mL
same,time of maximal IL-1β secretion,"[5]; agrimoniin-mediated, Miyamoto",ca. 24 h
same,"release of TNF-α, indirect measure by L929 lysis",L929 murine fibroblast,promoted release of TNF-α in substantial amounts
same,"antitumor effect, in words",sarcoma-180 tumors,induce tumor regression
same,IL-1β secreted above blank,[4]; 4 h treatment with 28 μM agrimoniin,ca. 1 ng/mL
O=C(OC1OC2COC(=O)c3cc(O)c(O)c(O)c3-c3c(cc(O)c(O)c3O)C(=O)OC2C(OC(=O)c2cc(O)c(O)c(O)c2)C1OC(=O)c1cc(O)c(O)c(O)c1)c1cc(O)c(O)c(Oc2c(C(=O)OC3OC4COC(=O)c5cc(O)c(O)c(O)c5-c5c(cc(O)c(O)c5O)C(=O)OC4C(OC(=O)c4cc(O)c(O)c(O)c4)C3OC(=O)c3cc(O)c(O)c(O)c3)cc(O)c(O)c2O)c1 (stereo not drawn) [coriariin A],"release of TNF-α, indirect measure by L929 lysis",L929 murine fibroblast,promoted release of TNF-α in substantial amounts
same,life span increase,sarcoma-180 tumors,238%
same,regressors,sarcoma-180 tumors,3/6
same,"antitumor effect, in words",sarcoma-180 tumors,induce tumor regression
same,"TNF-α secretion from h-PBMC's, in words",[2],higher levels of TNF-α
same,IL-1β inducing ability relative to agrimoniin on a molar basis,[4]; 4 h,twice that of agrimoniin
TNF-α,"clearance from serum, t1/2",[6],6.5 to 10.5 min
